Patent US20230085307A1, “PYRIDAZINONE COMPOUND AND HERBICIDE” (NISSAN CHEMICAL CORPORATION, priority 2019, published 2023)

Columns and labels:
late watergrass = assay: Test Example 1: herbicidal activity, application before weed generation under submerged conditions (Table 16, symbol A); type: in vivo, late watergrass (Echinochloa oryzicola); conditions: 320 g/ha applied herbicide
How it was run: (§1)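 Alluvial soil was flooded to 4 cm depth, weed seeds were sown mixed and 2.5-leaf rice seedlings were transplanted. On sowing day, the compound's emulsion, diluted in water to a set dose, was applied to the water surface. Plants grew at 25–30 °C and were scored 0–5 after three weeks.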

Japanese bulrush = assay: Test Example 1: herbicidal activity, application before weed generation under submerged conditions (Table 16, symbol B); type: in vivo, Japanese bulrush (Schoenoplectus juncoides); conditions: 320 g/ha applied herbicide
How it was run: as §1

oval-leafed pondweed = assay: Test Example 1: herbicidal activity, application before weed generation under submerged conditions (Table 16, symbol C); type: in vivo, oval-leafed pondweed (Monochoria vaginalis); conditions: 320 g/ha applied herbicide
How it was run: as §1

barnyard grass [1] = assay: Test Example 3: herbicidal effect by foliage application, Wagner pot (Table 18, symbol H); type: in vivo, barnyard grass (Echinochloa crus-galli); conditions: 320 g/ha
How it was run: (§2)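 Plants were sown in alluvial soil held under 0.1–0.5 cm standing water and grown 14 days in a greenhouse at 25–30 °C. An emulsifiable formulation, water-diluted to the set dose, was then sprayed onto the foliage, and effects were scored three weeks later using previously defined criteria.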

Chinese sprangletop = assay: Test Example 3: herbicidal effect by foliage application, Wagner pot (Table 18, symbol D); type: in vivo, chinese sprangletop (Leptochloa chinensis); conditions: 320 g/ha
How it was run: as §2

rice flat sedge = assay: Test Example 3: herbicidal effect by foliage application, Wagner pot (Table 18, symbol E); type: in vivo, rice flat sedge (Cyperus iria); conditions: 320 g/ha
How it was run: as §2

southern crabgrass [2] = assay: Test Example 4: herbicidal effect by soil treatment (Table 19, symbol F); type: in vivo, southern crabgrass (Digitaria ciliaris); conditions: amount of applied herbicide 320 g/ha
How it was run: (§3)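 Step 1: sow seeds in sterilized diluvial soil, cover ~1.5 cm. Step 2: spray diluted emulsion onto soil surface at predetermined rate. Step 3: greenhouse, 25–30° C, three weeks. Step 4: grade effect on each plant by earlier criteria.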

green foxtail [3] = assay: Test Example 4: herbicidal effect by soil treatment (Table 19, symbol G); type: in vivo, green foxtail (Setaria viridis); conditions: amount of applied herbicide 320 g/ha
How it was run: as §3

barnyard grass [4] = assay: Test Example 4: herbicidal effect by soil treatment (Table 19, symbol H); type: in vivo, barnyard grass (Echinochloa crus-galli); conditions: amount of applied herbicide 320 g/ha
How it was run: as §3

wild oat [5] = assay: Test Example 4: herbicidal effect by soil treatment (Table 19, symbol I); type: in vivo, wild oat (Avena fatua); conditions: amount of applied herbicide 320 g/ha
How it was run: as §3

blackgrass [6] = assay: Test Example 4: herbicidal effect by soil treatment (Table 19, symbol J); type: in vivo, blackgrass (Alopecurus myosuroides); conditions: amount of applied herbicide 320 g/ha
How it was run: as §3

Italian ryegrass [7] = assay: Test Example 4: herbicidal effect by soil treatment (Table 19, symbol K); type: in vivo, Italian ryegrass (Lolium multiflorum); conditions: amount of applied herbicide 320 g/ha
How it was run: as §3

windgrass [8] = assay: Test Example 4: herbicidal effect by soil treatment (Table 19, symbol L); type: in vivo, windgrass (Apera spica-venti); conditions: amount of applied herbicide 320 g/ha
How it was run: as §3

velvetleaf [9] = assay: Test Example 4: herbicidal effect by soil treatment (Table 19, symbol M); type: in vivo, velvetleaf (Abutilon theophrasti); conditions: amount of applied herbicide 320 g/ha
How it was run: as §3

redroot pigweed [10] = assay: Test Example 4: herbicidal effect by soil treatment (Table 19, symbol N); type: in vivo, redroot pigweed (Amaranthus retroflexus); conditions: amount of applied herbicide 320 g/ha
How it was run: as §3

lambsquarters [11] = assay: Test Example 4: herbicidal effect by soil treatment (Table 19, symbol O); type: in vivo, lambsquarters (Chenopodium album); conditions: amount of applied herbicide 320 g/ha
How it was run: as §3

chickweed [12] = assay: Test Example 4: herbicidal effect by soil treatment (Table 19, symbol P); type: in vivo, common chickweed (Stellaria media); conditions: amount of applied herbicide 320 g/ha
How it was run: as §3

persian speedwell [13] = assay: Test Example 4: herbicidal effect by soil treatment (Table 19, symbol R); type: in vivo, Persian speedwell (Veronica persica); conditions: amount of applied herbicide 320 g/ha
How it was run: as §3

southern crabgrass [14] = assay: Test Example 5: herbicidal effect by foliage application, plastic box (Table 20, symbol F); type: in vivo, southern crabgrass (Digitaria ciliaris); conditions: foliage application, 320 g/ha
How it was run: (§4)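 Foliar spray test: emulsion formulation diluted in water to a set application rate, sprayed onto 14-day-old plants raised in diluvial soil at 25° C to 30° C under glass. Both herbicidal effect and crop effect rated visually three weeks later.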

green foxtail [15] = assay: Test Example 5: herbicidal effect by foliage application, plastic box (Table 20, symbol G); type: in vivo, green foxtail (Setaria viridis); conditions: foliage application, 320 g/ha
How it was run: as §4

barnyard grass [16] = assay: Test Example 5: herbicidal effect by foliage application, plastic box (Table 20, symbol H); type: in vivo, barnyard grass (Echinochloa crus-galli); conditions: foliage application, 320 g/ha
How it was run: as §4

wild oat [17] = assay: Test Example 5: herbicidal effect by foliage application, plastic box (Table 20, symbol I); type: in vivo, wild oat (Avena fatua); conditions: foliage application, 320 g/ha
How it was run: as §4

blackgrass [18] = assay: Test Example 5: herbicidal effect by foliage application, plastic box (Table 20, symbol J); type: in vivo, blackgrass (Alopecurus myosuroides); conditions: foliage application, 320 g/ha
How it was run: as §4

Italian ryegrass [19] = assay: Test Example 5: herbicidal effect by foliage application, plastic box (Table 20, symbol K); type: in vivo, Italian ryegrass (Lolium multiflorum); conditions: foliage application, 320 g/ha
How it was run: as §4

windgrass [20] = assay: Test Example 5: herbicidal effect by foliage application, plastic box (Table 20, symbol L); type: in vivo, windgrass (Apera spica-venti); conditions: foliage application, 320 g/ha
How it was run: as §4

velvetleaf [21] = assay: Test Example 5: herbicidal effect by foliage application, plastic box (Table 20, symbol M); type: in vivo, velvetleaf (Abutilon theophrasti); conditions: foliage application, 320 g/ha
How it was run: as §4

redroot pigweed [22] = assay: Test Example 5: herbicidal effect by foliage application, plastic box (Table 20, symbol N); type: in vivo, redroot pigweed (Amaranthus retroflexus); conditions: foliage application, 320 g/ha
How it was run: as §4

lambsquarters [23] = assay: Test Example 5: herbicidal effect by foliage application, plastic box (Table 20, symbol O); type: in vivo, lambsquarters (Chenopodium album); conditions: foliage application, 320 g/ha
How it was run: as §4

chickweed [24] = assay: Test Example 5: herbicidal effect by foliage application, plastic box (Table 20, symbol P); type: in vivo, common chickweed (Stellaria media); conditions: foliage application, 320 g/ha
How it was run: as §4

persian speedwell [25] = assay: Test Example 5: herbicidal effect by foliage application, plastic box (Table 20, symbol R); type: in vivo, Persian speedwell (Veronica persica); conditions: foliage application, 320 g/ha
How it was run: as §4

[26] = evaluated three weeks after application

Cc1nn(C)c(=O)c(-c2c(-c3ccc(OC(C)C)cc3)sc3ccc(Cl)cc23)c1O [2-107]
Herbicidal effect on A: late watergrass (grade 0-5) (late watergrass): 2 (Herbicidal rate of 20% or more and less than 40%)
Herbicidal effect on B: Japanese bulrush (grade 0-5) (Japanese bulrush): 0 (Herbicidal rate of 5% or less (almost no effect))
Herbicidal effect on C: oval-leafed pondweed (grade 0-5) (oval-leafed pondweed): 0 (Herbicidal rate of 5% or less (almost no effect))
herbicidal effect on H (barnyard grass), rating 0-5 (barnyard grass [1]): 4 (Herbicidal rate of 70% or more and less than 90%)
herbicidal effect on D (Chinese sprangletop), rating 0-5 (Chinese sprangletop): 0 (Herbicidal rate of 5% or less (almost no effect))
herbicidal effect on E (rice flat sedge), rating 0-5 (rice flat sedge): 2 (Herbicidal rate of 20% or more and less than 40%)
F: southern crabgrass, herbicidal effect rating (southern crabgrass [2]): 0 (Herbicidal rate of 5% or less (almost no effect))
G: green foxtail, herbicidal effect rating (green foxtail [3]): 0 (Herbicidal rate of 5% or less (almost no effect))
H: barnyard grass, herbicidal effect rating (barnyard grass [4]): 0 (Herbicidal rate of 5% or less (almost no effect))
I: wild oat, herbicidal effect rating (wild oat [5]): 0 (Herbicidal rate of 5% or less (almost no effect))
J: blackgrass, herbicidal effect rating (blackgrass [6]): 0 (Herbicidal rate of 5% or less (almost no effect))
K: Italian ryegrass, herbicidal effect rating (Italian ryegrass [7]): 0 (Herbicidal rate of 5% or less (almost no effect))
L: windgrass, herbicidal effect rating (windgrass [8]): 0 (Herbicidal rate of 5% or less (almost no effect))
M: velvetleaf, herbicidal effect rating (velvetleaf [9]): 0 (Herbicidal rate of 5% or less (almost no effect))
N: redroot pigweed, herbicidal effect rating (redroot pigweed [10]): 0 (Herbicidal rate of 5% or less (almost no effect))
O: lambsquarters, herbicidal effect rating (lambsquarters [11]): 0 (Herbicidal rate of 5% or less (almost no effect))
P: chickweed, herbicidal effect rating (chickweed [12]): 0 (Herbicidal rate of 5% or less (almost no effect))
R: persian speedwell, herbicidal effect rating (persian speedwell [13]): 5 (Herbicidal rate of 90% or more (almost completely withered))
herbicidal effect on F: southern crabgrass (southern crabgrass [14]; [26]): 3 (Herbicidal rate of 40% or more and less than 70%)
herbicidal effect on G: green foxtail (green foxtail [15]; [26]): 4 (Herbicidal rate of 70% or more and less than 90%)
herbicidal effect on H: barnyard grass (barnyard grass [16]; [26]): 4 (Herbicidal rate of 70% or more and less than 90%)
herbicidal effect on I: wild oat (wild oat [17]; [26]): 0 (Herbicidal rate of 5% or less (almost no effect))
herbicidal effect on J: blackgrass (blackgrass [18]; [26]): 3 (Herbicidal rate of 40% or more and less than 70%)
herbicidal effect on K: Italian ryegrass (Italian ryegrass [19]; [26]): 0 (Herbicidal rate of 5% or less (almost no effect))
herbicidal effect on L: windgrass (windgrass [20]; [26]): 4 (Herbicidal rate of 70% or more and less than 90%)
herbicidal effect on M: velvetleaf (velvetleaf [21]; [26]): 3 (Herbicidal rate of 40% or more and less than 70%)
herbicidal effect on N: redroot pigweed (redroot pigweed [22]; [26]): 4 (Herbicidal rate of 70% or more and less than 90%)
herbicidal effect on O: lambsquarters (lambsquarters [23]; [26]): 3 (Herbicidal rate of 40% or more and less than 70%)
herbicidal effect on P: chickweed (chickweed [24]; [26]): 5 (Herbicidal rate of 90% or more (almost completely withered))
herbicidal effect on R: persian speedwell (persian speedwell [25]; [26]): 5 (Herbicidal rate of 90% or more (almost completely withered))

CCCC(=O)Oc1c(C)nn(C)c(=O)c1-c1c(-c2cc(F)ccc2OC)sc2ccccc12 [1-059]
Herbicidal effect on A: late watergrass (grade 0-5) (late watergrass): 3 (Herbicidal rate of 40% or more and less than 70%)
Herbicidal effect on B: Japanese bulrush (grade 0-5) (Japanese bulrush): 2 (Herbicidal rate of 20% or more and less than 40%)
Herbicidal effect on C: oval-leafed pondweed (grade 0-5) (oval-leafed pondweed): 1 (Herbicidal rate of 5% or more and less than 20%)
herbicidal effect on H (barnyard grass), rating 0-5 (barnyard grass [1]): 3 (Herbicidal rate of 40% or more and less than 70%)
herbicidal effect on D (Chinese sprangletop), rating 0-5 (Chinese sprangletop): 1 (Herbicidal rate of 5% or more and less than 20%)
herbicidal effect on E (rice flat sedge), rating 0-5 (rice flat sedge): 5 (Herbicidal rate of 90% or more (almost completely withered))
herbicidal effect rating, F: southern crabgrass (southern crabgrass [2]): 0 (Herbicidal rate of 5% or less (almost no effect))
herbicidal effect rating, G: green foxtail (green foxtail [3]): 3 (Herbicidal rate of 40% or more and less than 70%)
herbicidal effect rating, H: barnyard grass (barnyard grass [4]): 3 (Herbicidal rate of 40% or more and less than 70%)
herbicidal effect rating, I: wild oat (wild oat [5]): 0 (Herbicidal rate of 5% or less (almost no effect))
herbicidal effect rating, J: blackgrass (blackgrass [6]): 3 (Herbicidal rate of 40% or more and less than 70%)
herbicidal effect rating, K: Italian ryegrass (Italian ryegrass [7]): 1 (Herbicidal rate of 5% or more and less than 20%)
herbicidal effect rating, L: windgrass (windgrass [8]): 3 (Herbicidal rate of 40% or more and less than 70%)
herbicidal effect rating, M: velvetleaf (velvetleaf [9]): 0 (Herbicidal rate of 5% or less (almost no effect))
herbicidal effect rating, N: redroot pigweed (redroot pigweed [10]): 0 (Herbicidal rate of 5% or less (almost no effect))
herbicidal effect rating, O: lambsquarters (lambsquarters [11]): 3 (Herbicidal rate of 40% or more and less than 70%)
herbicidal effect rating, P: chickweed (chickweed [12]): 0 (Herbicidal rate of 5% or less (almost no effect))
herbicidal effect rating, R: persian speedwell (persian speedwell [13]): 0 (Herbicidal rate of 5% or less (almost no effect))
herbicidal effect grade, F: southern crabgrass (southern crabgrass [14]; three weeks after application): 0 (Herbicidal rate of 5% or less (almost no effect))
herbicidal effect grade, G: green foxtail (green foxtail [15]; three weeks after application): 2 (Herbicidal rate of 20% or more and less than 40%)
herbicidal effect grade, H: barnyard grass (barnyard grass [16]; three weeks after application): 3 (Herbicidal rate of 40% or more and less than 70%)
herbicidal effect grade, I: wild oat (wild oat [17]; three weeks after application): 2 (Herbicidal rate of 20% or more and less than 40%)
herbicidal effect grade, J: blackgrass (blackgrass [18]; three weeks after application): 3 (Herbicidal rate of 40% or more and less than 70%)
herbicidal effect grade, K: Italian ryegrass (Italian ryegrass [19]; three weeks after application): 2 (Herbicidal rate of 20% or more and less than 40%)
herbicidal effect grade, L: windgrass (windgrass [20]; three weeks after application): 4 (Herbicidal rate of 70% or more and less than 90%)
herbicidal effect grade, M: velvetleaf (velvetleaf [21]; three weeks after application): 2 (Herbicidal rate of 20% or more and less than 40%)
herbicidal effect grade, N: redroot pigweed (redroot pigweed [22]; three weeks after application): 3 (Herbicidal rate of 40% or more and less than 70%)
herbicidal effect grade, O: lambsquarters (lambsquarters [23]; three weeks after application): 3 (Herbicidal rate of 40% or more and less than 70%)
herbicidal effect grade, P: chickweed (chickweed [24]; three weeks after application): 5 (Herbicidal rate of 90% or more (almost completely withered))
herbicidal effect grade, R: persian speedwell (persian speedwell [25]; three weeks after application): 2 (Herbicidal rate of 20% or more and less than 40%)
